From patent publication US7695930B2, “Method for the detection, identification and/or quantification of microoganisms with peptidase activity using phenoxazinone derivatives as enzyme substrates” (Biomerieux, priority 2003, dated 2010)

What was measured:
Test in all cases: Alanine peptidase detection, substrates with one to three amino acids (Example 15)
Assay type in all cases: cell-based
Parameters in all cases: key to color of the colony: R=pink; RP=pale pink; I=colorless
Conditions in all cases: 50 mg/l
[1] = system: Staphylococcus epidermis (NCTC 11047)
Procedure: (§1) 1000 ml of Columbia medium was melted in a waterbath at 100° C. and autoclaved at 121° C. for 15 min. It was then cooled to 50° C. in a waterbath.
(§2) This medium was separated into 5 flasks of 200 ml, and then, added at 50° C., as substrates, was that of Example 2 for which A is: • medium 1: L-alanine (L-alanine-9-aminobenzo[a]phenoxazin-5-one or A-ABP), • medium 2: L-alanine-L-alanine (L-alanine-L-alanine-9-aminobenzo-[a]phenoxazin-5-one or AA-ABP), • medium 3: L-alanine-L-alanine-L-alanine (L-alanine-L-alanine-L-alanine-9-aminobenzo[a]phenoxazin-5-one or AAA-ABP), • medium 4: L-alanine-glycine (L-alanine-glycine-9-aminobenzo[a]phenoxazin-5-one or AG-ABP), and • medium 5: glycine-L-alanine (glycine-L-alanine-9-aminobenzo[a]phenoxazin-5-one or GA-ABP), each substrate being solubilized in DMSO and used at a final concentration of 50 mg/l.
(§3) The medium was then poured into Petri dishes.
(§4) Nine microorganism strains derived from the Applicant's collection, suspended in physiological saline, were seeded in colonies on the media prepared in point 15.1 above according to a multipoint inoculation in a proportion of 15 000 cfu/spot. The dishes were incubated at 37° C. for 48 hours. The colonies formed were examined visually after incubation for 24 and 48 hours.
(§5) The results are expressed in Tables 7 and 8 hereinafter according to the rules and the nomenclature stated in paragraph 11.3 and where R=pink, RP=pale pink and I=colorless.

[2] = system: Staphylococcus aureus (NCTC 6571)
Procedure: as §1, §2, §3, §4, §5

[3] = system: Micrococcus luteus (NCTC611)
Procedure: as §1, §2, §3, §4, §5

Substance “L-alanyl-9-aminobenzo[a]phenoxazin-5-one [Ala-ABP]” has a growth diameter ([1]; 24 h) of 0 mm, a growth diameter ([1]; 48 h) of 0 mm and a growth diameter ([2]; 24 h) of 0 mm. For the same substance, the “color of the colony” value ([2]; 48 h) was “I”, the growth diameter ([2]; 48 h) was 2 mm and the growth diameter ([3]; 24 h) was 0 mm. The growth diameter ([3]; 48 h) was 0 mm.
